This is an account of results in US12692254B2, “Benzimidazole inhibitors of PAD enzymes” (BRISTOL-MYERS SQUIBB COMPANY, priority 2018, dated 2026).

For the test, the target named is human PAD4 (hPAD4) (Homo sapiens, UniProt Q9UM07). Put plainly: RFMS human PAD4 functional assay (rapid-fire mass spectrum). It counts as biochemical. To be noted: 5 nM hPAD4 enzyme, 250 μM BAEE, 50 μM Calcium; 30 min preincubation, 90 min reaction at 37° C. The method in brief:
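PAD4 (10 nM) preincubated 30 min with compound (top final 50 μM), then BAEE substrate added in pH 7.5 HEPES buffer with DTT, 50 μM calcium, TPEN; 90 min at 37° C. After TCA quench, citrulline derivatized with phenyl glyoxal (4 mM final, 30 min, 37° C) and quantified by RapidFire MS against internal standard.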

Sequence of human PAD4 (hPAD4) (Q9UM07 whole entry): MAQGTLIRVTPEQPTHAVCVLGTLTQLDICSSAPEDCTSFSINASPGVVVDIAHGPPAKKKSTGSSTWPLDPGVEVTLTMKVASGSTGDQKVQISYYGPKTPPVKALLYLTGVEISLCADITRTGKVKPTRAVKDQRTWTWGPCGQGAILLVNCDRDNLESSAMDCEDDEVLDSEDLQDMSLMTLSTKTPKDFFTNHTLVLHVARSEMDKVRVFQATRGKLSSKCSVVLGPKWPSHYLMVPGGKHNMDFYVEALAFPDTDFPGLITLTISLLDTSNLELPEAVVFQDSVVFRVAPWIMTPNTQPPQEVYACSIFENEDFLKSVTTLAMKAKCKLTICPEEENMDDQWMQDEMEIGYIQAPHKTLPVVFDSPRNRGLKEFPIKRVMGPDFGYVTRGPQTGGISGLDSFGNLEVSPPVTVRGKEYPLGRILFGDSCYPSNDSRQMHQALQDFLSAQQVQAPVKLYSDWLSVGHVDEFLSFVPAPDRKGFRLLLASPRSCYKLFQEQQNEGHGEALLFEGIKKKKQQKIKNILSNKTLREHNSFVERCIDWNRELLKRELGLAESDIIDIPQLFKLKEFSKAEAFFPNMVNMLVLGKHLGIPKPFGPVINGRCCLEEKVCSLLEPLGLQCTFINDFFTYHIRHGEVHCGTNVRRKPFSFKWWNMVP

Consider `COc1nccc(N2CCC(Cn3c(-c4cc5cccnc5n4CC4CC4)nc4cc(C(=O)N5CC6CCC5[C@@H]6N)cc(OC)c43)CC2)n1` (stereo partly drawn) [Example 222, (1R.,4R,7R)-2-{2-[1-(cyclopropylmethyl)-1H-pyrrolo[2,3-b]pyridin-2-yl]-7-methoxy-1-{[1-(2-methoxypyrimidin-4-yl)piperidin-4-yl]methyl}-1H-1,3-benzodiazole-5-carbonyl}-2-azabicyclo[2.2.1]heptan-7-amine], for which the IC50 was found to be 166 nM. With `COc1cc(C(=O)N2CC3CCC2[C@@H]3N)cc2nc(-c3cc4ccccc4n3CC3CC3)n(Cc3cnn(-c4cncc(C#N)c4)c3)c12` (stereo partly drawn) [Example 351, 5-[4-({5-[(7R)-7-amino~2-azabicyclo[2.2.1]heptane-2-carbonyl]-2-[1-(cyclopropylmethyl)-1H-indol-2-yl]-7-methoxy-1H-1,3-benzodiazol-1-yl}methyl)-1H-pyrazol-1-yl]pyridine-3-carbonitrile] the figure was 18 nM; with `COc1cc(C(=O)N2CC(Cn3c(-c4cc5ccccc5n4CC4CC4)nc4cc(C(=O)N5CC6CCC5[C@@H]6N)cc(OC)c43)C2)ccn1` (stereo partly drawn) [Example 417, (7R)-2-{2-[1-(cyclopropylmethyl)-1H-indol-2-yl]-7-methoxy-1-{[1-(2-methoxypyridine-4-carbonyl)azetidin-3-yl]methyl}-1H-1,3-benzodiazole-5-carbonyl}-2-azabicyclo[2.2.1]heptan-7-amine], 11 nM; with `COc1cc(C(=O)N2CC3CCC2[C@@H]3N)cc2nc(-c3cc4ccccc4n3CC3CC3)n(CC3CN(C(=O)c4cc(C)nc(C)c4)C3)c12` (stereo partly drawn) [Example 418, (7R)-2-{2-[1-(cyclopropylmethyl)-1H-indol-2-yl]-1-{[1-(2,6-dimethylpyridine-4-carbonyl)azetidin-3-yl]methyl}-7-methoxy-1H-1,3-benzodiazole-5-carbonyl}-2-azabicyclo[2.2.1]heptan-7-amine], 14 nM. For `COc1cc(C(=O)N2C[C@H]3CC[C@@H]2[C@@H]3N)cc2nc(-c3cc4cccnc4n3CC3CC3)n(CC3CN(C(=O)c4ccnc(N)n4)C3)c12` [Example 125, (1R,4R,7R)-2-(1-{[1-(2-aminopyrimidine-4-carbonyl)azetidin-3-yl]methyl}-2-[1-(cyclopropylmethyl)-1H-pyrrolo[2,3-b]pyridin-2-yl]-7-methoxy-1H-1,3-benzodiazole-5-carbonyl)-2-azabicyclo[2.2.1]heptan-7-amine], the IC50 amounted to 102 nM. `COc1cc(C(=O)N2CCC[C@@H](N)C2)cc2nc(-c3cc4cccnc4n3CC3CC3)n([C@H]3C[C@@H](N)C3)c12` [Example 303, (3R)-1-{2-[1-(cyclopropylmethyl)-1H-pyrrolo[2,3-b]pyridin-2-yl]-7-methoxy-1-[(1s,3s)-3-aminocyclobutyl]-1H-1,3-benzodiazole-5-carbonyl}piperidin-3-amine]: the IC50 was 1650 nM. With `COc1cc(N2CC(Cn3c(-c4cc5cccnc5n4CC4CC4)nc4cc(C(=O)N5C[C@H]6CC[C@@H]5[C@@H]6N)cc(OC)c43)C2)ccn1` [Example 49, (1R,4R,7R)-2-{2-[1-(cyclopropylmethyl)-1H-pyrrolo[2,3-b]pyridin-2-yl]-7-methoxy-1-{[1-(2-methoxypyridin-4-yl)azetidin-3-yl]methyl}-1H-1,3-benzodiazole-5-carbonyl}-2-azabicyclo[2.2.1]heptan-7-amine] the figure was 126 nM.

As to `COc1cc(C(=O)N2C[C@H]3CC[C@@H]2[C@@H]3N)cc2nc(-c3cc4cccnc4n3CC3CC3)n(C3CN(C(=O)c4ccnc(F)c4)C3)c12` [Example 193, (1R,4R,7R)-2-{2-[1-(cyclopropylmethyl)-1H-pyrrolo[2,3-b]pyridin-2-yl]-1-[1-(2-fluoropyridine-4-carbonyl)azetidin-3-yl]-7-methoxy-1H-1,3-benzodiazole-5-carbonyl}-2-azabicyclo[2.2.1]heptan-7-amine], the half-inhibitory concentration (IC50) was determined as 2720 nM. In the case of `COc1cc(C(=O)N2C[C@H]3CC[C@@H]2[C@@H]3N)cc2nc(-c3cc4cccnc4n3CC3CC3)n(CC3CN(C(=O)C#Cc4ccccc4)C3)c12` [Example 109, 1-[3-({5-[(1R,4R,7R)-7-amino-2-azabicyclo[2.2.1]heptane-2-carbonyl]-2-[1-(cyclopropylmethyl)-1H-pyrrolo[2,3-b]pyridin-2-yl]-7-methoxy-1H-1,3-benzodiazol-1-yl}methyl)azetidin-1-yl]-3-phenylprop-2-yn-1-one], the IC50 was determined as 41 nM. For the molecule `COc1cc(C(=O)N2C[C@H]3CC[C@@H]2[C@@H]3N)cc2nc(-c3cc4cccnc4n3CC3CC3)n(CC3CCN(C(=O)c4ccnc(Cl)c4)CC3)c12` [Example 198, (1R,4R,7R)-2-(1-{[1-(2-chloropyridine-4-carbonyl)piperidin-4-yl]methyl}-2-[1-(cyclopropylmethyl)-1H-pyrrolo[2,3-b]pyridin-2-yl]-7-methoxy-1H-1,3-benzodiazole-5-carbonyl)-2-azabicyclo[2.2.1]heptan-7-amine], the IC50 was determined as 131 nM. For `COc1cc(C(=O)N2CC3CCC2[C@@H]3N)cc2nc(-c3cc4cccnc4n3CC3CC3)n([C@H]3C[C@@H](N)C3)c12` (stereo partly drawn) [Example 295, (1R,4R,7R)-2-{2-[1-(cyclopropylmethyl)-1H-pyrrolo[2,3-b]pyridin-2-yl]-7-methoxy-1-[(1s,3s)-3-aminocyclobutyl]-1H-1,3-benzodiazole-5-carbonyl}-2-azabicyclo[2.2.1]heptan-7-amine], the IC50 worked out at 282 nM. As to `COc1cc(C(=O)N2CC3CCC2[C@@H]3N)cc2nc(-c3cc4cccnc4n3CC3CC3)n([C@H]3C[C@@H](C(N)=O)C3)c12` (stereo partly drawn) [Example 294, (1s,3s)-3-{5-[(1R,4R,7R)-7-amino-2-azabicyclo[2.2.1]heptane-2-carbonyl]-2-[1-(cyclopropylmethyl)-1H-pyrrolo[2,3-b]pyridin-2-yl]-7-methoxy-1H-1,3-benzodiazol-1-yl}cyclobutane-1-carboxamide], the IC50 worked out at 456 nM. As for `COc1cc(C(=O)N2CC3CCC2[C@@H]3N)cc2nc(-c3cc4cccnc4n3CC3CC3)n(Cc3cnn(-c4ccc(O)nc4)c3)c12` (stereo partly drawn) [Example 370, 5-[4-({5-[(7R)-7-amino-2-azabicyclo[2.2.1]heptane-2-carbonyl]-2-[1-(cyclopropylmethyl)-1H-pyrrolo[2,3-b]pyridin-2-yl]-7-methoxy-1H-1,3-benzodiazol-1-yl}methyl)-1H-pyrazol-1-yl]pyridin-2-ol], the IC50 is 30 nM. As to `COc1cc(C(=O)N2CCC[C@@H](N)C2)cc2nc(-c3cc4cccnc4n3CC3CC3)n([C@H]3C[C@H](N)C3)c12` [Example 300, (3R)-1-{2-[1-(cyclopropylmethyl)-1H-pyrrolo[2,3-b]pyridin-2-yl]-7-methoxy-1-[(1r,3r)-3-aminocyclobutyl]-1H-1,3-benzodiazole-5-carbonyl}piperidin-3-amine], the IC50 was found to be 912 nM. In the case of `COc1cc(C(=O)N2CC3CCC2[C@@H]3N)cc2nc(-c3cccn3CC3CC3)n(CC3CN(c4cncc(C#N)c4)C3)c12` (stereo partly drawn) [Example 317], the IC50 came out at 1190 nM.

For `COc1cc(C(=O)N2C[C@H](N)C[C@@H](F)C2)cc2nc(-c3cc4ccccc4n3CC3CC3)n(Cc3cc(C)nn3C)c12` [Example 276, (3R,5R)-1-{2-[1-(cyclopropylmethyl)-1H-indol-2-yl]-1-[(1,3-dimethyl-1H-pyrazol-5-yl)methyl]-7-methoxy-1H-1,3-benzodiazole-5-carbonyl}-5-fluoropiperidin-3-amine], the IC50 is 298 nM. `COc1cc(C(=O)N2C[C@H]3CC[C@@H]2[C@@H]3N)cc2nc(-c3cc4ccccc4n3CC3CC3)n(Cc3ccc(N)nc3)c12` [Example 244, (1R,4R,7R)-2-{1-[(6-aminopyridin-3-yl)methyl]-2-[1-(cyclopropylmethyl)-1H-indol-2-yl]-7-methoxy-1H-1,3-benzodiazole-5-carbonyl}-2-azabicyclo[2.2.1]heptan-7-amine]: the IC50 is 11 nM. `COc1cc(C(=O)N2C[C@H]3CC[C@@H]2[C@@H]3N)cc2nc(-c3cc4ccccc4n3C)n(CC3CN(c4ccnc(C#N)n4)C3)c12` [Example 10, 4-[3-({5-[(1R,4R,7R)-7-amino-2-azabicyclo[2.2.1]heptane-2-carbonyl]-7-methoxy-2-(1-methyl-1H-indol-2-yl)-1H-1,3-benzodiazol-1-yl}methyl)azetidin-1-yl]pyrimidine-2-carbonitrile]: the IC50 is 32 nM.

Consider `COc1cc(C(=O)N2C[C@H]3CC[C@@H]2[C@@H]3N)cc2nc(-c3cc4cccnc4n3CC3CC3)n(C[C@H]3CCN(c4nccnc4C#N)C3)c12` [Example 202, 3-[(3S)-3-({5-[(1R,4R,7R)-7-amino-2-azabicyclo[2.2.1]heptane-2-carbonyl]-2-[1-(cyclopropylmethyl)-1H-pyrrolo[2,3-b]pyridin-2-yl]-7-methoxy-1H-1,3-benzodiazol-1-yl}methyl)pyrrolidin-1-yl]pyrazine-2-carbonitrile], for which the IC50 turned out to be 21 nM. For `COc1cc(C(=O)N2C[C@H]3CC[C@@H]2[C@@H]3N)cc2nc(-c3cc4ccccc4n3CC3CC3)n(CC3CN(C(=O)c4ccc(C(=O)O)cc4)C3)c12` [Example 151, 4-[3-({5-[(1R,4R,7R)-7-amino-2-azabicyclo[2.2.1]heptane-2-carbonyl]-2-[1-(cyclopropylmethyl)-1H-indol-2-yl]-7-methoxy-1H-1,3-benzodiazol-1-yl}methyl)azetidine-1-carbonyl]benzoic acid], the 50% inhibitory concentration (IC50) was 20 nM. With `COc1cc(C(=O)N2C[C@H]3CC[C@@H]2[C@@H]3N)cc2nc(-c3cc4cccnc4n3CC3CC3)n(CC3CN(c4nc(O)ncc4C#N)C3)c12` [Example 79, 4-[3-({5-[(1R,4R,7R)-7-amino-2-azabicyclo[2.2.1]heptane-2-carbonyl]-2-[1-(cyclopropylmethyl)-1H-pyrrolo[2,3-b]pyridin-2-yl]-7-methoxy-1H-1,3-benzodiazol-1-yl}methyl)azetidin-1-yl]-2-hydroxypyrimidine-5-carbonitrile] the figure was 400 nM.

As a reminder, the IC50 is the concentration that inhibits the measured activity by half.
